Holding throughout (assay type): biochemical
Assay [1] concerns the target T1, USP7 (Homo sapiens, UniProt Q93009).
In assay [2] the target is T2, SENP2 (Homo sapiens, UniProt Q9HC62).
T2 sequence (Q9HC62 366-589): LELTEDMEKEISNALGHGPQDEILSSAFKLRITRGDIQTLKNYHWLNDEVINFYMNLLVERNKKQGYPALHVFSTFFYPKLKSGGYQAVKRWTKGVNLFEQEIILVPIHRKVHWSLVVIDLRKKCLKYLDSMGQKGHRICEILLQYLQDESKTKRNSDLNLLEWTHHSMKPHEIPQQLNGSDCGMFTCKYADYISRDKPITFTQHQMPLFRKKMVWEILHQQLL

Assay [3] concerns the target T3, USP2 (Homo sapiens, UniProt O75604).
Assay [4] has as its target T2, SENP2. The assay is described as follows: SUMO3-PLA2 / NBD C6-HPC coupled fluorescence isopeptidase assay.
Assay [5] deals with T3, USP2. The assay is described as follows: Ub-PLA2 / NBD C6-HPC coupled fluorescence isopeptidase assay.
For assay [6], the target named is T1, USP7. The description is as above.

Where two headings read alike, the source gives them in different places.

T3 sequence (O75604 259-605): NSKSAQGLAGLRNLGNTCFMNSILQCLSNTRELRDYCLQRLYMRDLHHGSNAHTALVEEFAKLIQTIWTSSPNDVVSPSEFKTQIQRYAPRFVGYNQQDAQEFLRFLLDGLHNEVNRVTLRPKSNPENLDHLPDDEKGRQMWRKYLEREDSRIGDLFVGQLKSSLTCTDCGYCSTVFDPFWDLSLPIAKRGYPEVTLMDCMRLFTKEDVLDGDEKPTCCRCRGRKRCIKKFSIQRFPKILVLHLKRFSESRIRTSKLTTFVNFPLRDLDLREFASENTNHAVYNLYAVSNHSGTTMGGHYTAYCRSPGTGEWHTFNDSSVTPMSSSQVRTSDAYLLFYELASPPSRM
T1 sequence (Q93009 whole entry): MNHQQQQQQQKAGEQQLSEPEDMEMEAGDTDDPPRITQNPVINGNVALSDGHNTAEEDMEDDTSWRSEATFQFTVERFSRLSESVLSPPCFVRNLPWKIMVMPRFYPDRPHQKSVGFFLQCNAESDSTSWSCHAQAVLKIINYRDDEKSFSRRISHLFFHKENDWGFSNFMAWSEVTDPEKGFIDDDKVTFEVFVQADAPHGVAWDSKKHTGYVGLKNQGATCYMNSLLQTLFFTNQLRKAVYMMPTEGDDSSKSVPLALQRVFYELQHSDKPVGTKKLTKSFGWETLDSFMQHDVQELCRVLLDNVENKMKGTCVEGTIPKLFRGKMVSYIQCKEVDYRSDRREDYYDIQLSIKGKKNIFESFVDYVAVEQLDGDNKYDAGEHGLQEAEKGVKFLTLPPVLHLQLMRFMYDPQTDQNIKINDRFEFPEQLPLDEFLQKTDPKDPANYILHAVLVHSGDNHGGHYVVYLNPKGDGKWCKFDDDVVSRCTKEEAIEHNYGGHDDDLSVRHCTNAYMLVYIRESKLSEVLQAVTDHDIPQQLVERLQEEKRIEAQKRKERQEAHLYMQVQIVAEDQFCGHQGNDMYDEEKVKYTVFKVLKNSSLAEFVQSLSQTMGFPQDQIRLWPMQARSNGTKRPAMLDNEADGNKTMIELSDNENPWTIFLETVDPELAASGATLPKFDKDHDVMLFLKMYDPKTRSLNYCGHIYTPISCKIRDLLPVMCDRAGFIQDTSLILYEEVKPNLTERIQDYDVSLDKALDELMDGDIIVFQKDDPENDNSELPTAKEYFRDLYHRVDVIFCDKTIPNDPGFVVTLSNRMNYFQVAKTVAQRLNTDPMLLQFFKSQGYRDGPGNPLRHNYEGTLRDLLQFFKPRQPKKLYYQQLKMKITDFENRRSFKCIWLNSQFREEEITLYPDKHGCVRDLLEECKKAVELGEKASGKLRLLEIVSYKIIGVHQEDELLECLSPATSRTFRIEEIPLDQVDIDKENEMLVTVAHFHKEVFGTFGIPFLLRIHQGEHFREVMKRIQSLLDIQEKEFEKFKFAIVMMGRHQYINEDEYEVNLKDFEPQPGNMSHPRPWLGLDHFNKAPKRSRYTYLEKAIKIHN

The EC50 is the concentration that produces a half-maximal response. With `Cc1ccc(/C=C2\CNC/C(=C\c3ccc(C)cc3)C2=O)cc1` [NSC 632839], the EC50 at USP7 [1] came to 37 ± 1 µM; at SENP2 [2], 9.8 ± 1.8 µM; at USP2 [3], 45 ± 4 µM.
As to `CCN1C(=O)C=CC1=O` [N‐Ethylmaleimide], the EC50 came to 1300 ± 200 µM at SENP2 [4], 1900 ± 200 µM on USP2 [5] and 1400 ± 70 µM at USP7 [6].
